Measured values reported in patent US20090238792A1, “SUPPRESSION OF POSTOPERATIVE ILEUS” (University of Pittsburgh of the Commonwealth System of …, priority 2007, published 2009).

How the values were obtained:
[1] = tested on: rats with surgical manipulation of the intestine; assay: Rat in vivo gastrointestinal transit of fluorescein-labeled dextran (geometric center)
Procedure: (§1) Age matched animals treated with vehicle (normal saline) or valine (263.5 mg/kg, osmotic control) at appropriate time points and at equal volumes served as controls.
(§2) The rodent intestine was subjected to a standardized degree of surgical manipulation as described previously (14). Rats were anesthetized by isoflurane inhalation and the abdomen was opened by a midline laparotomy. The cecum was eventrated and laid out onto a moist gauze. Then, the intestine was inspected along its length and gently compressed using moist cotton applicators. The midline incision was closed by two layers of continuous sutures. All operative procedures were performed under sterile conditions with the intestine being handled only by instruments and never touched directly. Animals were killed at specific time points postoperatively by isoflurane anesthesia inhalation overdose and heart incision.
(§3) Methods: ACI-rats (180-220 g) underwent standardized surgical manipulation of the intestine. […] Age matched animals treated with vehicle or valine (osmotic control) at appropriate time points and at equal volumes served as controls. […] Postoperative mediator mRNA expression in the intestinal muscularis was determined by real-time RT PCR. Leukocyte extravasation was investigated in muscularis whole-mounts. Nitrite production was measured in muscularis cultures. In vivo transit of FITC-dextran was measured using geometric center analysis (GC). In vitro circular muscle contractility was assessed in a standard organ bath. Statistical analysis: unpaired Student t test, p<0.05, mean±SEM.

[2] = tested on: jejunal circular smooth muscle; assay: In vitro bethanechol stimulated contractile activity of jejunal circular muscle strips; type: in vivo, rat; conditions: for mean contractile force, bethanechol stimulated: manipulated rats, 100 mM bethanechol, control 3.2±0.2, SM vehicle 1.9±0.1
Procedure: as §1, §2
Mechanical in vitro activity of the rat mid-jejunum was evaluated at 24 hours postoperatively using smooth muscle strips of the circular muscularis as described previously (rats: N=5-11) (14). After dissection and a 30 minute equilibration period, the individual muscles were incrementally stretched to L0. Then after recording spontaneous contractility for 30 minutes, dose response curves were generated using increasing concentrations of the muscarinic agonist bethanechol ([…]) for 10 minutes and intervening wash periods (KRB) of 10 minutes. The contractile response was recorded and analyzed as g/mm2/sec over a 10 minute period.
as §3

[3] = tested on: MPO positive leukocytes in the intestinal muscularis; assay: Myeloperoxidase (MPO) histochemistry: leukocyte infiltration in muscularis whole-mounts; type: in vivo, rat; conditions: for infiltrating MPO positive leukocytes: manipulated rats, 24 h postoperatively, SM vehicle 95±6.4
Procedure: as §1, §2
Histochemistry and Immunohistochemistry: Leukocyte infiltration was quantified on rat whole-mounts of the intestinal muscularis as described previously (N=6-8) (43). Myeloperoxidase (MPO) positive cells were detected using a mixture of 30 mg Hanker-Yates reagent, 30 ml KRB and […] 3% hydrogen peroxide for 10 minutes. Leukocytes were counted in 5 randomly chosen areas in each specimen (3 specimen per animal) at a magnification of 200×.
as §3

[4] = tested on: nitrite (nitric oxide); assay: Nitrite release (Griess reaction) from organ cultured muscularis; type: in vivo, rat
Procedure: as §1, §2
Tissue culture and determination of nitrite and prostanoid release in supernatant: The rat small intestine and colon were processed for tissue culture at 24 hours as described previously, (N=5-8) (25). Briefly, the muscularis was isolated by stripping the muscularis from the mucosa and then cut into small pieces and washed twice in Hank's balanced salt solution (HBSS) with 100 U/ml penicillin G and 100 μg/ml streptomycin. Aliquots of muscularis ([…]) were incubated (37° C., 5% CO2) in 6-well tissue culture plates containing 3 ml of supplemented Dulbecco's modified Eagle medium (DMEM)-F12 with 100 U/ml penicillin G and 100 μg/ml streptomycin. After an incubation period of 24 hours, 500 μl aliquots of supernatant were collected, frozen in liquid nitrogen and stored at −80° C. The muscle tissue was blotted dry, and the weight was estimated. To estimate the generation of NO from the intestinal muscularis, nitrite production was measured by the Griess reaction (44). Supernatant from the tissue culture was mixed with equal amount of Griess reagent (0.1% N-(1-naphtyl)ethyl-enediamine dihydrochloride and 1% sulfanilamide in 6% phosphoric acid; 1:1) and incubated at room temperature for 10 minutes. The absorbance at 550 nm was measured with a microplate reader and compared with standard prepared from serial dilutions of sodium nitrite. Each standard and supernatant sample was analyzed in duplicate, and the mean value of nitrite production was normalized to the tissue weight.
as §3

[5] = tested on: prostanoids; assay: Prostanoid release (ELISA) from organ cultured muscularis; type: in vivo, rat; conditions: manipulated rats, glycine 170 mg/kg or valine
Procedure: Age matched animals treated with vehicle (normal saline) or valine (263.5 mg/kg, osmotic control) at appropriate time points and at equal volumes served as controls. The rodent intestine was subjected to a standardized degree of surgical manipulation as described previously (14). Rats were anesthetized by isoflurane inhalation and the abdomen was opened by a midline laparotomy. The cecum was eventrated and laid out onto a moist gauze. Then, the intestine was inspected along its length and gently compressed using moist cotton applicators. The midline incision was closed by two layers of continuous sutures. All operative procedures were performed under sterile conditions with the intestine being handled only by instruments and never touched directly. Animals were killed at specific time points postoperatively by isoflurane anesthesia inhalation overdose and heart incision. The synthesis of prostanoids released into the tissue culture supernatant over a period of 24 hours was assayed by ELISA. After incubation the culture median and tissue was inspected, 500 μL aliquots of supernatant were frozen in liquid nitrogen and stored at −80° C. The muscle tissue was blotted dry and weighed. Culture supernatants were assayed for the measurement of prostaglandin secretion by enzyme immunoassay (Cayman Chemicals, Ann Arbor, Mich.). The ELISA was carried out in a 1:10 and 1:30 dilution. The assay was corrected for wet tissue weights and the prostaglandin ELISA kit sensitivity was 20 pg/ml.

[6] = tested on: interleukins and chemokines
Description: Luminex Multiplex Bead Immunoassays: The release of […] inflammatory analytes into the mouse tissue culture supernatant, obtained as above, was quantified with a Luminex 100™ using microsphere-based multiplexing technology. The mouse cytokine twenty plex immune kit was comprised of analyte specific components for the simultaneous measurement of the following mouse cytokines (FGF-basic, IL-1α, IL-1β, IL-2, IL-4, IL-5, IL-6, IL-10, IL-12p70, IL-13, IL-17, TNF-α, IFN-γ, GM-CSF, KC, MCP-1, MIG, MIP-1α, IP-10 and VEGF) (Invitrogen, Carlsbad, Calif.).

[7] = 170 mg/kg intravenously; cited from earlier work
[8] = Example 5, glycine (170 mg) i.v. 1 hour prior to surgery

With NCC(=O)O [glycine] the “postoperative intestinal transit” value [1, 8] was “ameliorated”, the “geometric center (GC) of gastrointestinal transit” value ([1]; surgically manipulated rats, 24 h postoperatively, i.v. pretreatment 1 h before surgery, glycine 170 mg/kg, valine 263.5 mg/kg, SM vehicle GC=5.2±0.7) was 8.5±0.7 and the “amelioration of postoperative muscularis contractility” value [2, 8] was 54%. The “mean contractile force, bethanechol stimulated” value ([2]; 85 mg/kg glycine) was 2.4±0.3 g/mm2/s, the “mean contractile force, bethanechol stimulated” value ([2]; 170 mg/kg glycine or valine pretreatment) was 2.9±0.3 g/mm2/s and the “reduction of infiltrating leukocytes compared to manipulated vehicle pretreated rats” value ([3]; glycine 85 mg/kg) was 18%. For the same compound, the “reduction of infiltrating leukocytes compared to manipulated vehicle pretreated rats” value ([3]; glycine 170 mg/kg) was 27%, the “infiltrating MPO positive leukocytes” value ([3]; 85 mg/kg glycine) was 78±5.1 cells/field at 200× and the “infiltrating MPO positive leukocytes” value ([3]; glycine 170 mg/kg or valine (263.5 mg/kg)) was 69±5.7 cells/field at 200×. For the same compound, the MPO positive cells ([3]; rats without intestinal manipulation, glycine injected, vehicle 2±0.9) was 2±0.5 cells/field at 200× magnification, the “attenuation of postoperative increase in nitrite production” value ([4]; Example 5, muscularis cultures, glycine (170 mg) i.v. 1 hour prior to surgery) was 39% and the “nitrite release, fold increase over control, colon” value ([4]; manipulated rats, colonic muscularis 24 h organ culture, glycine 170 mg/kg or valine, SM vehicle 10.9-fold) was 2.5 fold. The “nitrite release, fold increase over control, jejunum” value ([4]; manipulated rats, jejunal muscularis 24 h organ culture, glycine 170 mg/kg or valine, SM vehicle 11.4-fold) was 2.7 fold, the “Griess reaction measurements from the unmanipulated muscularis” value ([4]; unmanipulated, glycine 170 mg/kg) was “no significant effects” and the “prostanoid release, fold of control, colon” value ([5]; colonic muscularis 24 h organ culture, SM 3.1-fold) was 0.7 fold. For the same compound, the “prostanoid release, fold of control, jejunum” value ([5]; jejunal muscularis 24 h organ culture, SM 5.9-fold) was 0.9 fold, the “interleukins and chemokines released into organ culture media, colonic muscularis externa” value ([6]; manipulated colonic muscularis, significance reached by IL-5, IL-6, IL-10, IL-12, KC, MCP-1, MIP1-α and GM-CSF) was “tended to be quelled” and the “interleukins and chemokines released into organ culture media, jejunal muscularis externa” value ([6]; manipulated jejunal muscularis, significance reached by IL-6, IP-10 and MIP1-α) was “tended to be quelled”. For the same compound, the “production of chemokines (IP-10, KC, MCP-1, MIP-1α, VEGF and GM-CSF)” value ([6]; organ cultured muscularis of jejunum and colon, more dramatic in colon) was “trend for the inhibition”, the “release of interleukins 5, 6, 10 and 12” value ([6]; organ cultured muscularis of jejunum and colon, more pronounced in colon) was “decrease” and the “increase of glycine serum levels” value [7] was “about sevenfold”.
